Test system: NOD-SCID mice bearing isogenic PSMA^+ PC3 PIP and PSMA^− PC3 flu tumors
Test: Biodistribution in tumor-bearing mice
Settings: for blood uptake / bone uptake / fat uptake / heart uptake / kidney uptake / large intestine uptake / liver uptake / muscle uptake / salivary gland uptake / small intestine uptake / spleen uptake / stomach uptake / lung uptake / pancreas uptake / bladder (empty) uptake / PSMA^+ PIP tumor uptake / PSMA^− flu tumor uptake: tail vein, ± SD, n = 3–4; for PSMA^+ PIP tumor uptake: PSMA+ PC3 PIP xenograft; for PSMA^− flu tumor uptake: PSMA− PC3 flu xenograft

For `O=C(O)CCC(NC(=O)NC(CCCCNC(=O)c1ccc([18F])nc1)C(=O)O)C(=O)O` (stereo not shown) [[^18F]DCFPyL, 2-(3-{1-carboxy-5-[(6-[^18F]fluoropyridine-3-carbonyl)-amino]-pentyl}-ureido)-pentanedioic acid, reference compound], the “PSMA^+ PC3 PIP tumor uptake compared to [^18F]YC-88” value (1, 2, and 4 h) was “significantly higher”, the blood uptake (30 min postinjection) was 1.67 ± 0.54 % ID/g and the bone uptake (30 min postinjection) was 1.00 ± 0.51 % ID/g. It also gave a fat uptake (30 min postinjection) of 1.42 ± 0.51 % ID/g, a heart uptake (30 min postinjection) of 0.84 ± 0.16 % ID/g and a kidney uptake (30 min postinjection) of 135.28 ± 9.75 % ID/g. It also gave a large intestine uptake (30 min postinjection) of 1.17 ± 0.06 % ID/g, a liver uptake (30 min postinjection) of 3.54 ± 0.20 % ID/g and a muscle uptake (30 min postinjection) of 0.54 ± 0.05 % ID/g. For the same compound, the salivary gland uptake (30 min postinjection) was 2.60 ± 0.60 % ID/g, the small intestine uptake (30 min postinjection) was 0.83 ± 0.03 % ID/g and the spleen uptake (30 min postinjection) was 10.67 ± 1.68 % ID/g. It also gave a stomach uptake (30 min postinjection) of 0.90 ± 0.14 % ID/g, a blood uptake (60 min postinjection) of 0.72 ± 0.22 % ID/g and a fat uptake (60 min postinjection) of 0.84 ± 0.44 % ID/g. The heart uptake (60 min postinjection) was 0.32 ± 0.09 % ID/g, the large intestine uptake (60 min postinjection) was 0.49 ± 0.05 % ID/g and the liver uptake (60 min postinjection) was 3.48 ± 0.21 % ID/g. For the same compound, the lung uptake (60 min postinjection) was 1.41 ± 0.25 % ID/g, the muscle uptake (60 min postinjection) was 0.36 ± 0.18 % ID/g and the pancreas uptake (60 min postinjection) was 0.61 ± 0.21 % ID/g. For the same compound, the salivary gland uptake (60 min postinjection) was 1.57 ± 0.18 % ID/g, the small intestine uptake (60 min postinjection) was 0.56 ± 0.12 % ID/g and the spleen uptake (60 min postinjection) was 5.61 ± 0.56 % ID/g. The stomach uptake (60 min postinjection) was 0.50 ± 0.10 % ID/g, the “bladder (empty) uptake” value (120 min postinjection) was 11.40 ± 9.95 % ID/g and the blood uptake (120 min postinjection) was 0.23 ± 0.05 % ID/g. For the same compound, the bone uptake (120 min postinjection) was 0.37 ± 0.05 % ID/g, the fat uptake (120 min postinjection) was 0.15 ± 0.02 % ID/g and the kidney uptake (120 min postinjection) was 61.23 ± 20.36 % ID/g. The liver uptake (120 min postinjection) was 3.08 ± 0.13 % ID/g, the lung uptake (120 min postinjection) was 0.41 ± 0.09 % ID/g and the muscle uptake (120 min postinjection) was 0.08 ± 0.02 % ID/g. It also gave a pancreas uptake (120 min postinjection) of 0.23 ± 0.05 % ID/g, a salivary gland uptake (120 min postinjection) of 0.43 ± 0.15 % ID/g and a small intestine uptake (120 min postinjection) of 0.55 ± 0.50 % ID/g. The spleen uptake (120 min postinjection) was 1.64 ± 0.40 % ID/g, the stomach uptake (120 min postinjection) was 0.21 ± 0.06 % ID/g and the “bladder (empty) uptake” value (240 min postinjection) was 16.85 ± 10.15 % ID/g. The blood uptake (240 min postinjection) was 0.11 ± 0.00 % ID/g, the bone uptake (240 min postinjection) was 0.71 ± 0.40 % ID/g and the fat uptake (240 min postinjection) was 0.10 ± 0.05 % ID/g. For the same compound, the heart uptake (240 min postinjection) was 0.06 ± 0.01 % ID/g, the kidney uptake (240 min postinjection) was 19.36 ± 2.32 % ID/g and the large intestine uptake (240 min postinjection) was 0.83 ± 1.00 % ID/g. It also gave a liver uptake (240 min postinjection) of 2.30 ± 0.28 % ID/g, a lung uptake (240 min postinjection) of 0.16 ± 0.02 % ID/g and a muscle uptake (240 min postinjection) of 0.07 ± 0.04 % ID/g. For the same compound, the pancreas uptake (240 min postinjection) was 0.09 ± 0.02 % ID/g, the salivary gland uptake (240 min postinjection) was 0.32 ± 0.22 % ID/g and the small intestine uptake (240 min postinjection) was 0.16 ± 0.04 % ID/g. For the same compound, the spleen uptake (240 min postinjection) was 0.55 ± 0.11 % ID/g, the stomach uptake (240 min postinjection) was 0.09 ± 0.03 % ID/g and the “PSMA^+ PIP tumor uptake” value (30 min postinjection) was 64.85 ± 19.22 % ID/g. The “PSMA^+ PIP tumor uptake” value (60 min postinjection) was 84.29 ± 12.29 % ID/g, the “PSMA^+ PIP tumor uptake” value (120 min postinjection) was 69.55 ± 1.71 % ID/g and the “PSMA^+ PIP tumor uptake” value (240 min postinjection) was 74.34 ± 7.28 % ID/g. The “PSMA^− flu tumor uptake” value (30 min postinjection) was 1.50 ± 0.71 % ID/g, the “PSMA^− flu tumor uptake” value (60 min postinjection) was 0.46 ± 0.06 % ID/g and the “PSMA^− flu tumor uptake” value (120 min postinjection) was 0.21 ± 0.06 % ID/g. The “PSMA^− flu tumor uptake” value (240 min postinjection) was 0.21 ± 0.17 % ID/g.

From publication PMC5516890 (Bioconjugate chemistry, 2016)
